Experimental data from the supplement of paper PMC10307832.

How the values were obtained:
Test in all cases: relative viability (nuclei count vs DMSO), 5 days (fraction); higher = more cells survive
[1] = compound: O=c1[nH]cc(F)c(=O)[nH]1 [5-Fluorouracil] + COc1cccc2cc(-c3nc([C@H]4CC[C@H](C(=O)O)CC4)n4ncnc(N)c34)[nH]c12 [OSI-027] (partner 0.5 µM)
Method in brief: (§1)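 Lung cancer cell lines in 1536-well plates got either a single drug or a fixed anchor-drug dose together with five library-drug doses (not always all listed) in √10 steps, by pin tool, on the day after seeding. Nuclei were counted after 5 days, and relative viability is the treated-to-vehicle ratio of nuclei counts. Values are medians of duplicate plates.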

[2] = compound: CC1=C(CC(=O)O)c2cc(F)ccc2/C1=C\c1ccc([S+](C)[O-])cc1 [Sulindac] + COc1cccc2cc(-c3nc([C@H]4CC[C@H](C(=O)O)CC4)n4ncnc(N)c34)[nH]c12 [OSI-027] (partner 0.5 µM)
Method in brief: as §1

[3] = compound: CN[C@@H]1C[C@H]2O[C@@](C)([C@@H]1OC)n1c3ccccc3c3c4c(c5c6ccccc6n2c5c31)C(=O)NC4 [Staurosporine] + NC(=O)Nc1cc(-c2cccc(F)c2)sc1C(=O)N[C@H]1CCCNC1 [AZD7762] (partner 0.2 µM)
Method in brief: as §1

[4] = compound: O=c1[nH]cc(F)c(=O)[nH]1 [5-Fluorouracil] + N=C(N)NC(=N)NCCc1ccccc1 [Phenformin] (partner 250 µM)
Method in brief: as §1

| Cell Line | relative viability ([1]; first compound 0.02 µM) | relative viability ([1]; first compound 0.2 µM) | relative viability ([1]; first compound 0.6325 µM) | relative viability ([1]; first compound 2 µM) | relative viability ([2]; first compound 0.08 µM) | relative viability ([2]; first compound 0.253 µM) | relative viability ([2]; first compound 0.8 µM) | relative viability ([2]; first compound 2.53 µM) | relative viability ([2]; first compound 8 µM) | relative viability ([3]; first compound 0.005 µM) | relative viability ([3]; first compound 0.01581 µM) | relative viability ([3]; first compound 0.05 µM) | relative viability ([3]; first compound 0.1581 µM) | relative viability ([3]; first compound 0.5 µM) | relative viability ([4]; first compound 0.02 µM) | relative viability ([4]; first compound 0.2 µM) | relative viability ([4]; first compound 0.6325 µM) | relative viability ([4]; first compound 2 µM) |
| --- | --- | --- | --- | --- | --- | --- | --- | --- | --- | --- | --- | --- | --- | --- | --- | --- | --- | --- |
| NCI-H1666 | 0.869 | 0.551 | 0.488 | 0.508 | 0.857 | 0.882 | 0.753 | 0.826 | 0.915 | 0.701 | 0.51 | 0.524 | 0.404 | 0.32 | 0.582 | 0.447 | 0.392 | 0.392 |
| LOU-NH91 | 0.694 | 0.788 | 0.692 | 0.432 | 0.681 | 0.714 | 0.808 | 0.705 | 0.73 | 0.555 | 0.341 | 0.395 | 0.254 | 0.247 | 0.731 | 0.858 | 0.589 | 0.298 |
| LXF-289 | 0.808 | 0.612 | 0.356 | 0.258 | 0.829 | 0.863 | 0.749 | 0.753 | 0.844 | 0.903 | 0.157 | 0.298 | 0.0835 | 0.0894 | 0.507 | 0.428 | 0.332 | 0.297 |
| HARA | 0.475 | 0.737 | 0.559 | 0.308 | 0.553 | 0.549 | 0.447 | 0.488 | 0.602 | 0.278 | 0.169 | 0.262 | – | 0.029 | 0.426 | 0.559 | 0.455 | 0.27 |
| LU99A | 0.262 | 0.272 | 0.311 | 0.223 | 0.306 | 0.289 | 0.284 | 0.299 | 0.306 | 0.327 | 0.135 | 0.205 | 0.153 | 0.0961 | 0.905 | 0.786 | 0.738 | 0.586 |
| 201T | 0.964 | 0.274 | 0.161 | 0.128 | 0.746 | 0.802 | 0.744 | 0.727 | 0.879 | 0.599 | – | 0.498 | 0.579 | 0.342 | 0.423 | 0.378 | 0.288 | 0.297 |
| HCC-827 | 0.767 | 0.832 | 0.681 | 0.391 | 0.913 | 0.777 | 0.573 | 0.798 | 0.761 | 0.204 | 0.179 | 0.153 | 0.143 | 0.115 | 0.363 | 0.37 | 0.414 | 0.29 |
| NCI-H1703 | – | – | – | – | – | – | – | – | – | 0.121 | 0.0954 | 0.107 | 0.083 | 0.118 | – | – | – | – |
| NCI-H1975 | 0.793 | 0.793 | 0.417 | 0.26 | 0.93 | 0.762 | 0.489 | 0.759 | 0.835 | 0.536 | 0.402 | 0.357 | 0.261 | 0.182 | 0.385 | 0.357 | 0.266 | 0.194 |
| NCI-H2023 | 0.369 | 0.176 | 0.103 | 0.0879 | 0.501 | 0.509 | 0.399 | 0.387 | 0.389 | – | – | – | – | – | 0.448 | 0.181 | 0.102 | 0.0896 |
